The subject of test [1] is human peripheral blood mononuclear cells (PBMC). Kind of test: PBMC cell activity (WST-1). The class given is cell-based. To be noted: after 24 h. The method, then:
PBMC activation model: PBMC (0.2.10^6 cell/well) were cultured in 96-well flat bottom plates (Corning). For 24 hours the cells were pre-incubated with 2′-FL (Jennewein), 3′-GL (0-0.3% w/v; […] Sigma Aldrich) and combinations thereof. Subsequently, the cells were CD3/CD28-activated (Pelicluster CD3 and Pelicluster CD28, Sanquin) for an additional 24 hours. After incubation, IFNγ was measured by ELISA in the supernatants (see below). […] Roche) and/or 10% Triton (5 μl; negative control).

Test [2] has the same test system. Kind of test: PBMC cytokine levels, unstimulated condition. The class given is cell-based. To be noted: for Relative CCL 20, observed: 0.1 w/v % 3′-GL. From the text:
Isolation of PBMC from healthy donors: Human peripheral blood mononuclear cells (PBMC) from healthy donors were isolated from buffy coats (Sanquin, Amsterdam, the Netherlands). PBMC were obtained by centrifugation using Leucosep tubes (Greiner Bio-One). […] After lysis, the PBMC were resuspended in freezing medium (70% RPMI 1640 medium (Gibco, Thermo Fisher Technologies) supplemented with 10% heat-inactivated FCS and 100 U/ml penicillin-streptomycin, 20% heat-inactivated FCS and 10% DMSO (Sigma)) and cryopreserved. PBMC activation model: PBMC (0.2.10^6 cell/well) were cultured in 96-well flat bottom plates (Corning). For 24 hours the cells were pre-incubated with 2'-FL (Jennewein), 3'-GL (0-0.3% w/v; […] Sigma Aldrich) and combinations thereof. Subsequently, the cells were CD3/CD28-activated (Pelicluster CD3 and Pelicluster CD28, Sanquin) for an additional 24 hours. After incubation, IFNγ was measured by ELISA in the supernatants (see below). […] Roche) and/or 10% Triton (5 μl; negative control). […] Cytokine production of PBMC: PBMC were incubated with indicated reagents. After incubation, the supernatants were collected and IL2, IL6, IL10, IL13, IL21, TNFα, IFNγ, MIF, CCL1, CCL13, CCL17, CCL20, CCL22 and CXCL8-11 levels were measured by conducting a validated multiplex immunoassay based on Luminex technology (xMAP, Luminex Austin Tex. USA). Acquisition was conducted with the Biorad […] (Biorad laboratories, Hercules USA) in combination with xPONENT software version 4.2 (Luminex). Data was analyzed by 5-parametric curve fitting using Bio-Plex Manager software, version 6.1.1 (Biorad). After PBMC stimulation, cell culture supernatants were collected, after which cytokine responses were measured in order to test immune responsiveness of the cells. The levels of cytokines measured in stimulated conditions were corrected for the (low) levels of the cytokines measured in non-stimulated conditions. In addition, since each donor is reacting in its own efficiency onto the T cell stimulus, we calculated the individual index of cytokine response by dividing the intervention induced response by the basal stimulated response.

Test [3] has as its system Bifidobacteria. The experiment in a line: Fecal slurry fermentation, CFU of total Bifidobacteria. On the procedure:
A 32 well plate that can handle low pH was used. The wells of this plate were filled with fecal solution. 2.5% (w/v) of the different sterile carbohydrate solutions (3′-GL, 2′-FL, 2′-FL/3′-GL (2.0+0.5%). and Glucose were added to the fecal slurry according to a template.
The experiment was started, and pH setpoint was either 5.5 (facial inoculum from infant 1, vaginally born, breast fed) or pH 6.0 (Inoculum from infant 2, vaginally born, breast fed) with continuous pH regulation, and temperature 37° C., humidity 85%, OD control. At 4, 8 and 24 hours a sample is taken for CFU determination on TOS-propionate MUP agar (total Bifidobacteria), XLD agar for Salmonella enteriditis S29, and Simons citrate inositol agar for Klebsiella pneumonia K2 and for SCFA, D- and L Lactate and ammonia analysis. Fecal pellet was used for 16s DNA sequencing. For both inocula the extent of fermentation, as measured by NaOH consumption, i.e. acid production, was highest with the combination of 3′-GU2′-FL, when compared to 3′-GL or 2′-FL alone. The rate of initial acidification was high for 3′-GL and for 3′-GL/2′-FL. […] As the amount of carbohydrates that can be fermented is the same in the reaction vessels, the higher total acidification with the combination is indicative for an unexpected, synergistic effect of the combination of 2′-FL and 3′-GL. The SCFA that were produced was for the largest part acetic acid. Also L-lactic acid was produced.

For test [4], the system named is fecal slurry microbiota of breast fed infants. The experiment in a line: Anaerobic fermentation of infant fecal slurry (BioLector Pro), acidification. Also noted: species or system human. To be noted: no pathogen spiking. The method, then:
Anaerobic fermentation of fecal slurry samples was tested in a BioLector Pro microfluidics mini multifermentor. Fecal slurry samples were collected from breast fed infants and from formula fed infants. These fecal slurry samples were processed by adding 0.6 grams feces in 40 ml Baby Reichardt V.6 medium+mucus+Ammonium sulfate+lactate and acetate. The resulting solutions were inserted to the BioLector Pro microfluidics mini multifermentor. The test legs were supplemented with 3-GL, 2′-FL, 3-GL+2′-FL, and GOS/FOS. The control leg was supplemented with sterile water.
After fermentation the fermented solutions were tested for SCFA content (in particular acetic acid, propionic acid, butyric acid and isobutyric acid), ammonia content, lactate content and pathogen concentration. Also DNA-isolation+identification and 16s sequencing was performed to determine the composition of the microbiota.
A 32 well plate that can handle low pH was used. […]
The experiment was started, and pH setpoint was either 5.5 (facial inoculum from infant 1, vaginally born, breast fed) or pH 6.0 (Inoculum from infant 2, vaginally born, breast fed) with continuous pH regulation, and temperature 37° C., humidity 85%, OD control. […] For both inocula the extent of fermentation, as measured by NaOH consumption, i.e. acid production, was highest with the combination of 3′-GU2′-FL, when compared to 3′-GL or 2′-FL alone. […]

The mark [5] stands for this setting: unstimulated, relative to blanc (=1), 0.2% w/v 2′-FL, 0.2 mM butyrate, mean.

For `C[C@@H]1O[C@@H](O[C@H]2[C@H](O[C@H]3[C@H](O)[C@@H](O)C(O)O[C@@H]3CO)O[C@H](CO)[C@H](O)[C@@H]2O)[C@@H](O)[C@H](O)[C@@H]1O` (stereo partly drawn) [2′-FL, α-L-Fuc-(1→2)-β-D-Gal-(1→4)-D-Glc], the “Immune cell activity as measured by WST” value in test [1] was “significantly increased”. Besides, the “IL10 level compared to blanc control” value in test [2] (0.2% 2′-FL, 0.2 mM butyrate) is given as “significantly (p<0.05) increased level of IL10”. For the same compound, the “CCL20 level compared to blanc control” value in test [2] (unstimulated) is “increased level of CCL20”. Moreover, the “Relative IL10 level, observed” value in test [2] (unstimulated, relative to blanc (=1), 0.2% w/v 2′-FL, 0.2 mM butyrate, mean, 10 donors) turned out to be 3.361. For the same compound, the “Relative CCL 20, observed” value in test [2] (setting [5]) is given as 2.586. For the same compound, in test [3], the “Growth of bifidobacteria” value is reported as “Growth of bifidobacteria was observed”. Moreover, the “extent of fermentation, as measured by NaOH consumption, i.e. acid production” value in test [4] (both inocula, 2.5% (w/v) carbohydrate) was “slower and lower acidification”.
For the compound “Gal (beta 1-3)-Gal (beta 1-4)-Glc [3′-GL]”, the “Immune cell activity as measured by WST” value in test [1] is on record as “decrease in activation”. In addition, the “CCL20 level compared to blanc control” value in test [2] (unstimulated) is “did not have a statistically significant effect”. In addition, in test [2] (setting [5]), the “Relative CCL 20, observed” value was 1.164. In addition, the “Growth of bifidobacteria” value in test [3] is “Growth of bifidobacteria was observed”. For the same compound, the “effect on bifidobacteria” value in test [3] (inoculum of baby 2) is “highest”. In addition, the “rate of initial acidification” value in test [4] is recorded as “high”.

Source of the values: patent US20220079962A1, “NUTRITIONAL COMPOSITION COMPRISING 2'FUCOSYLLACTOSE AND DIETARY BUTYRATE” (N.V. Nutricia, priority 2019, published 2022).
